One assay is filed under the species Rattus norvegicus. Description: Minimal effective dose in an rat anti-immobility effect using behavioral despair test. Format: functional. Conditions: read-out: MED.
Another assay addresses T1, Adenosine receptor A1 (Rattus norvegicus, UniProt P25099).
T1 sequence (P25099 whole entry): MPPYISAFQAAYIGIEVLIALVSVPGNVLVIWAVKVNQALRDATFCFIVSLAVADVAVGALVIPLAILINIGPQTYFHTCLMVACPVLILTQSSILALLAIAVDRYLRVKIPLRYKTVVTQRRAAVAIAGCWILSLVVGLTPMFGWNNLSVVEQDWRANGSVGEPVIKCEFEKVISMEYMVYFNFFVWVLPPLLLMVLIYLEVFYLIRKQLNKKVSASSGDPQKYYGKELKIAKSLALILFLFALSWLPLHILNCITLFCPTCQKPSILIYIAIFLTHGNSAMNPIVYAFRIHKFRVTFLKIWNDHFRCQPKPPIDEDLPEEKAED
Put plainly: Binding affinity towards the adenosine A1 receptor in cerebral cortices of Sprague-Dawley male rats using [3H]CHA as radioligand.

A further assay concerns the target Adenosine A2 receptor (Rattus norvegicus, UniProt P29276+P30543).

Drawing on ChEMBL document CHEMBL1124880 (J Med Chem, 1990), this text covers minimal effective dose and IC50 for 23 compounds.

Bounds are passed on as bounds.

Turning to `CC(C)Nc1nc2ccc(F)cc2n2c(O)nnc12`, the minimal effective dose in the assay filed under Rattus norvegicus is over 32 mg/kg. The IC50 (as a rule, the point on the concentration scale where inhibition reaches its midpoint) on Adenosine receptor A1 was 730 nM; on Adenosine A2 receptor it was 3500 nM.

Take `Nc1nc2ccc(F)cc2n2c(C(F)(F)F)nnc12`: in the assay filed under Rattus norvegicus, the minimal effective dose is 1 mg/kg. Also, the values for the IC50 at Adenosine receptor A1 and against Adenosine A2 receptor were 290 nM and 100 nM, respectively.

`CCc1nnc2c(NC3CCCCC3)nc3ccc(Cl)cc3n12`: in the assay listed under Rattus norvegicus, the minimal effective dose is over 32 mg/kg. The IC50 on Adenosine receptor A1 amounted to 44 nM; at Adenosine A2 receptor it was 4100 nM.

Regarding `CCc1nnc2c(Nc3ccccc3)nc3ccc(Cl)cc3n12`, in the assay filed under Rattus norvegicus, the minimal effective dose was over 32 mg/kg. In addition, the IC50 was 380 nM on Adenosine receptor A1 and over 100000 nM at Adenosine A2 receptor.

As to `Nc1nc2cc(Cl)ccc2n2cnnc12`, the minimal effective dose in the assay listed under Rattus norvegicus was at most 32 mg/kg. Besides, the IC50 was 1200 nM on Adenosine receptor A1 and 210 nM on Adenosine A2 receptor.

For `CC(C)Nc1nc2ccccc2n2c(C(F)(F)F)nnc12`, in the assay filed under Rattus norvegicus, the minimal effective dose was under 10 mg/kg. Also, the IC50 at Adenosine receptor A1 turned out to be 170 nM; at Adenosine A2 receptor it was 4100 nM.

For the compound `CCN(CC)c1nc2ccc(Cl)cc2n2c(C(F)(F)F)nnc12`, in the assay listed under Rattus norvegicus, the minimal effective dose was at most 32 mg/kg. For the same compound, the IC50 on Adenosine receptor A1 and against Adenosine A2 receptor was over 100000 nM in each case.

For the compound `CCc1nnc2c(NC(C)C)nc3cc(Cl)c(Cl)cc3n12`, in the assay listed under Rattus norvegicus, the minimal effective dose is at most 32 mg/kg. Further, the results for the IC50 on Adenosine receptor A1 and at Adenosine A2 receptor were 110 nM and 3200 nM, respectively.

On to `CC(C)Nc1nc2ccc(Cl)cc2n2c(C(F)(F)C(F)(F)F)nnc12`, for which, in the assay listed under Rattus norvegicus, the minimal effective dose was found to be 32 mg/kg. For the same compound, the IC50 on Adenosine receptor A1 was 24 nM; against Adenosine A2 receptor it was 3100 nM.

For `CCc1nnc2c(N)nc3cc(OC)ccc3n12`, in the assay filed under Rattus norvegicus, the minimal effective dose was over 32 mg/kg. Besides, the IC50 on Adenosine receptor A1 was 140 nM; against Adenosine A2 receptor it was 36 nM.

Regarding `CCc1nnc2c(NC(C)C)nc3cc(F)c(F)cc3n12`, the minimal effective dose in the assay filed under Rattus norvegicus is at most 32 mg/kg. Besides, the values for the IC50 at Adenosine receptor A1 and on Adenosine A2 receptor were 280 nM and 6400 nM, respectively.

In the case of `CCNc1nc2ccc(F)cc2n2cnnc12`, in the assay filed under Rattus norvegicus, the minimal effective dose was 3.2 mg/kg. The IC50 stood at 3200 nM on Adenosine receptor A1 and 17000 nM at Adenosine A2 receptor.

In the case of `CCc1nnc2c(NC(C)C)nc3ccc(F)cc3n12`, the minimal effective dose in the assay listed under Rattus norvegicus came out at 3.2 mg/kg. Also, the IC50 at Adenosine receptor A1 amounted to 180 nM; against Adenosine A2 receptor it was 3900 nM.

`CCc1nnc2c(N)nc3cc(Cl)c(Cl)cc3n12`: the minimal effective dose in the assay filed under Rattus norvegicus turned out to be 3.2 mg/kg. Also, the IC50 on Adenosine receptor A1 was found to be 110 nM; at Adenosine A2 receptor, 23 nM.

As to `COc1nnc2c(NC(C)C)nc3ccc(F)cc3n12`, the minimal effective dose in the assay filed under Rattus norvegicus is at most 32 mg/kg. The IC50 on Adenosine receptor A1 was 160 nM; on Adenosine A2 receptor, 6500 nM.

As for `CCNc1nc2ccc(F)cc2n2c(C(F)(F)F)nnc12`, the minimal effective dose in the assay listed under Rattus norvegicus stood at 3.2 mg/kg. Also, the values for the IC50 on Adenosine receptor A1 and against Adenosine A2 receptor were 230 nM and 14000 nM, respectively.

In the case of `Nc1nc2ccc(Cl)cc2n2cnnc12`, the minimal effective dose in the assay listed under Rattus norvegicus worked out at 10 mg/kg. Also, the IC50 on Adenosine receptor A1 was 3400 nM; on Adenosine A2 receptor it was “>= 1 uM”.

With `Nc1nc2ccc(Cl)cc2n2c(-c3ccccc3)nnc12`, in the assay listed under Rattus norvegicus, the minimal effective dose is over 32 mg/kg. The IC50 on Adenosine receptor A1 is 270 nM; against Adenosine A2 receptor it was 21 nM.

For `CCc1nnc2c(NC3CCCC3)nc3ccc(Cl)cc3n12`, in the assay filed under Rattus norvegicus, the minimal effective dose was over 32 mg/kg. Moreover, the IC50 was determined as 20 nM on Adenosine receptor A1 and 890 nM at Adenosine A2 receptor.

For `FC(F)(F)c1nnc2c(NC3CCCC3)nc3ccc(Cl)cc3n12`, the minimal effective dose in the assay filed under Rattus norvegicus was over 32 mg/kg. Also, the values for the IC50 at Adenosine receptor A1 and against Adenosine A2 receptor were 5.5 nM and 2100 nM, respectively.

Regarding `CCc1nnc2c(N[C@@H](C)Cc3ccccc3)nc3ccc(Cl)cc3n12`, the minimal effective dose in the assay listed under Rattus norvegicus was over 32 mg/kg. Moreover, the IC50 at Adenosine receptor A1 is 680 nM; against Adenosine A2 receptor it was over 100000 nM.

Regarding `CC(C)Nc1nc2ccc(Cl)cc2n2cnnc12`, the minimal effective dose in the assay listed under Rattus norvegicus was found to be 3.2 mg/kg. The IC50 on Adenosine receptor A1 is 370 nM; against Adenosine A2 receptor it was 3300 nM.

Turning to `Nc1nc2ccc(F)cc2n2c(O)nnc12`, the minimal effective dose in the assay listed under Rattus norvegicus stood at 10 mg/kg. In addition, the IC50 at Adenosine receptor A1 is 840 nM; against Adenosine A2 receptor, 700 nM.
